From US20080139554A1, “SPIRO-PIPERIDINE DERIVATIVES” (priority 2006, published 2008)

Target: T1, human V1a receptor (Homo sapiens, UniProt P37288)
T1 construct: expressed in transfected cells; host or cells: HEK293 cells, transiently transfected; cell membranes
Test: human V1a receptor binding (3H-Vasopressin SPA)
Conditions: displacement of 3H-Vasopressin; membranes of HEK293 cells transiently transfected with human V1a receptor; Ki by Cheng-Prussoff equation
Protocol: The human V1a receptor was cloned by RT-PCR from total human liver RNA. The coding sequence was subcloned in an expression vector after sequencing to confirm the identity of the amplified sequence. […] Cell membranes were prepared from HEK293 cells transiently transfected with the expression vector and grown in 20 liter fermenters with the following protocol.
50 g of cells were resuspended in 30 ml freshly prepared ice cold Lysis buffer (50 mM HEPES, 1 mM EDTA, 10 mM MgCl2 adjusted to pH=7.4+complete cocktail of protease inhibitor (Roche Diagnostics)). The mixture was homogenized with Polytron for 1 min and sonicated on ice for 2×2 minutes at 80% intensity (Vibracell sonicator). The preparation was centrifuged 20 min at 500 g at 4° C., the pellet was discarded and the supernatant centrifuged 1 hour at 43'000 g at 4° C. (19'000 rpm). The pellet was resuspended in 12.5 ml Lysis buffer+12.5 ml Sucrose 20% and homogenized using a Polytron for 1-2 min. The protein concentration was determined by the Bradford method and aliquots were stored at −80° C. until use. For binding studies 60 mg Yttrium silicate SPA beads (Amersham) were mixed with an aliquot of membrane in binding buffer (50 mM Tris, 120 mM NaCl, 5 mM KCl, 2 mM CaCl2, 10 mM MgCl2) for 15 minutes with mixing. 50 ul of bead/membrane mixture was then added to each well of a 96 well plate, followed by 50 ul of 4 nM 3H-Vasopressin (American Radiolabeled Chemicals). For total binding measurement, 100 ul of binding buffer were added to the respective wells; for non-specific binding, 100 ul of 8.4 mM cold vasopressin were added; and for compound testing, 100 ul of a serial dilution of each compound in 2% DMSO was added. The plate was incubated 1 h at room temperature, centrifuged 1 min at 1000 g and counted on a Packard Top-Count. Non-specific binding counts were subtracted from each well and data was normalized to the maximum specific binding set at 100%. To calculate an IC 50 the curve was fitted using a non-linear regression model (XLfit) and the Ki was calculated using the Cheng-Prussoff equation.

T1 sequence (P37288 whole entry): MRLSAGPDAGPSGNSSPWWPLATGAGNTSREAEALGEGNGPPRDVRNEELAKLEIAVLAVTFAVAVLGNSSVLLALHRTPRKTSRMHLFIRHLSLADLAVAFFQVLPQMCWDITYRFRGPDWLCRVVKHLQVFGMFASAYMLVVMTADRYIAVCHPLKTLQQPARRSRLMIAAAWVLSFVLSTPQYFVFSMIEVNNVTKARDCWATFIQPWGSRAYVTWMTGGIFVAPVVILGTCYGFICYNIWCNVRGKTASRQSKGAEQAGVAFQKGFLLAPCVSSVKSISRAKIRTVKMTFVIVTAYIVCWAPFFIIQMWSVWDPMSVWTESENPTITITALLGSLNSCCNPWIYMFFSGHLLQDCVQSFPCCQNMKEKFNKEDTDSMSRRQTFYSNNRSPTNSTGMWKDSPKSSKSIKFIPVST

O=C1OC2(CCN(C(=O)c3cc4cc(Cl)ccc4[nH]3)CC2)c2ccc(F)cc21 [Example 1, 1′-[(5-chloro-1H-indol-2-yl)carbonyl]-5-fluoro-3H-spiro[2-benzofuran-1,4′-piperidin]-3-one]
Ki: 41.7 nM

O=C1OC2(CCN(C(=O)c3cc4cc(Cl)ccc4[nH]3)CC2)c2ccccc21 [Example 2, 1′-[(5-chloro-1H-indol-2-yl)carbonyl]-3H-spiro[2-benzofuran-1,4′-piperidin]-3-one]
Ki: 32.4 nM

CN(C)C(=O)Cn1c(C(=O)N2CCC3(CC2)OC(=O)c2ccccc23)cc2cc(Cl)ccc21 [Example 4, 2-{5-chloro-2-[(3-oxo-1′H,3H-spiro[2-benzofuran-1,4′-piperidin]-1′-yl)carbonyl]-1H-indol-1-yl}-N,N-dimethylacetamide]
Ki: 17.4 nM

N#CCc1cc(Cl)cc2cc(C(=O)N3CCC4(CC3)OC(=O)c3ccccc34)[nH]c12 [Example 5, {5-chloro-2-[(3-oxo-1′H,3H-spiro[2-benzofuran-1,4′-piperidin]-1′-yl)carbonyl]-1H-indol-7-yl}acetonitrile]
Ki: 6.61 nM

O=C(c1cc2cc(F)ccc2[nH]1)N1CCC2(CC1)OCc1ccccc12 [Example 6, 1′-[(5-fluoro-1H-indol-2-yl)carbonyl]-3H-spiro[2-benzofuran-1,4′-piperidine]]
Ki: 17.8 nM

COc1c(C(=O)N2CCC3(CC2)OCc2ccccc23)[nH]c2cccc(Br)c12 [Example 8, 1′-[(4-bromo-3-methoxy-1H-indol-2-yl)carbonyl]-3H-spiro[2-benzofuran-1,4′-piperidine]]
Ki: 30.2 nM

O=C(c1cc2cc(Cl)ccc2[nH]1)N1CCC2(CC1)OCc1ccccc12 [Example 9, 1′-[(5-chloro-1H-indol-2-yl)carbonyl]-3H-spiro[2-benzofuran-1,4′-piperidine]]
Ki: 5.5 nM

N#CCc1cc(Cl)cc2cc(C(=O)N3CCC4(CC3)OCc3ccccc34)[nH]c12 [Example 10, [5-chloro-2-(1′H,3H-spiro[2-benzofuran-1,4′-piperidin]-1′-ylcarbonyl)-1H-indol-7-yl]acetonitrile]
Ki: 2.09 nM

O=C(c1cc2cc(Cl)cc(CN3CCOCC3)c2[nH]1)N1CCC2(CC1)OCc1ccccc12 [Example 11, 1′-{[5-chloro-7-(morpholin-4-ylmethyl)-1H-indol-2-yl]carbonyl}-3H-spiro[2-benzofuran-1,4′-piperidine]]
Ki: 3.8 nM

CN1CCN(Cc2cc(Cl)cc3cc(C(=O)N4CCC5(CC4)OCc4ccccc45)[nH]c23)CC1 [Example 12, 1′-({5-chloro-7-[(4-methylpiperazin-1-yl)methyl]-1H-indol-2-yl}carbonyl)-3H-spiro[2-benzofuran-1,4′-piperidine]]
Ki: 21.4 nM

CN(C)CCNC(=O)Cc1cc(Cl)cc2cc(C(=O)N3CCC4(CC3)OCc3ccccc34)[nH]c12 [Example 13, 2-[5-chloro-2-(1′H,3H-spiro[2-benzofuran-1,4′-piperidin]-1′-ylcarbonyl)-1H-indol-7-yl]-N-[2-(dimethylamino)ethyl]acetamide]
Ki: 7.76 nM

CN1CCN(C(=O)Cc2cc(Cl)cc3cc(C(=O)N4CCC5(CC4)OCc4ccccc45)[nH]c23)CC1 [Example 14, 1′-({5-chloro-7-[2-(4-methylpiperazin-1-yl)-2-oxoethyl]-1H-indol-2-yl}carbonyl)-3H-spiro[2-benzofuran-1,4′-piperidine]]
Ki: 2.75 nM

CN(C)Cc1cc(Cl)cc2cc(C(=O)N3CCC4(CC3)OCc3ccccc34)[nH]c12 [Example 15, 1-[5-chloro-2-(1′H,3H-spiro[2-benzofuran-1,4′-piperidin]-1′-ylcarbonyl)-1H-indol-7-yl]-N,N-dimethylmethanamine]
Ki: 3.63 nM

Cc1ccc2c(C)c(C(=O)N3CCC4(CC3)COc3ccccc34)[nH]c2c1C [Example 24, 1′-[(3,6,7-trimethyl-1H-indol-2-yl)carbonyl]spiro[1-benzofuran-3,4′-piperidine]]
Ki: 9.77 nM

Cc1c(C(=O)N2CCC3(CC2)COc2ccccc23)[nH]c2c(C)cccc12 [Example 26, 1′-[(3,7-dimethyl-1H-indol-2-yl)carbonyl]spiro[1-benzofuran-3,4′-piperidine]]
Ki: 7.24 nM

N#CCn1c(C(=O)N2CCC3(CC2)C(=O)Nc2ccc(Br)cc23)cc2cc(Cl)ccc21 [Example 46, {2-[(5-Bromo-2-oxo-1,2-dihydro-1′H-spiro[indole-3,4′-piperidin]-1′-yl)carbonyl]-5-chloro-1H-indol-1-yl}acetonitrile]
Ki: 21.4 nM
